Here are results for 38 compounds from patent publication US9573938B2 (priority 2012, dated 2017).

Data set [1] concerns the target 2009 H1N1 influenza A endonuclease (PAN domain) (Influenza A virus, UniProt C3W5S0). The experiment in a line: biochemical. Further details: species or system Influenza A (pandemic 2009 H1N1). The conditions noted are these: fluorescence change over time at 37 degrees Celsius.
Data set [2] deals with T1, HIV-1 integrase (Human immunodeficiency virus type 1 group M subtype B, UniProt P12497). Nature of the data set: 3′-processing assay. The conditions noted are these: 500 nM integrase, blunt ended 32P-labled 21-mer U5 DNA, 37° C. 1 hour; read-out: IC50 (μM) 3′-Process. Type of data set: biochemical. Here is the method:
(§1) The two metal binding motif of these compounds allows for potential cross reactivity with other drug targets with two metal containing active sites. Compounds were tested for LEDGF independent integration (strand transfer) and 3′ processing based on established protocols (Kessl et al.; J Biol Chem, 2012; 287:16801-16811).
(§2) The 3′-processing was assayed using blunt ended ^32P-labled 21-mer synthetic double stranded U5 DNA. The strand transfer assay used ^32P-labled recessed end 19-mer synthetic double stranded U5 DNA. 500 nM integrase was pre-incubated with compound for 30 minutes on ice in 50 mM MOPS (pH 7.2) buffer containing 2 mM β-mercaptoethanol, 50 mM NaCl and 10 mM MgCl2. 50 nM DNA substrate was added to the reaction and incubated at 37° C. for 1 hour when the reactions were stopped with 50 mM EDTA. The reaction products are subjected to denaturing polyacrylamide gel electrophoresis and visualized using a Storm 860 Phosphorimager (Amersham Biosciencs). The ICs50s of representative compounds of formula (I) as detected with a LEDGF independent integration assay or a 3′-processing assay are shown in the following table.

The target in data set [3] is T1, HIV-1 integrase. The experiment in a line: LEDGF independent integration (strand transfer) assay. It is filed as biochemical. The conditions noted are these: 500 nM integrase, 32P-labled recessed end 19-mer U5 DNA, 37° C. 1 hour. Here is the method: as §1, §2
[4] abbreviates: 500 nM or 50 nM enzyme, read-out: IC50 (uM) using either 500 nM or 50 nM enzyme.
The mark [5] stands for this setting: IC50 (uM) using either 500 nM or 50 nM enzyme.

Several values for one entry are separate records, joined by “and”; a condition that tells them apart may be missing. Equal entries are not always repeated. Where two headings read alike, the source gives them in different places.

With `O=c1[nH]c(-c2ccc(F)cc2)ncc1O` [2-(4-Fluorophenyl)-5-hydroxypyrimidin-4(3H)-one], the melting point lay in the range of 252 to 254 °C. Moreover, the IC50 in data set [1] (setting [4]) turned out to be 0.58 µM.

In the case of `N#Cc1ccc(-c2cc(O)c(=O)[nH]n2)cc1` [4-(5-Hydroxy-6-oxo-1,6-dihydropyridazin-3-yl)benzonitrile], the melting point was 305 to 307 °C. For the same compound, the IC50 in data set [1] (setting [4]) came to 9.3 µM.

`N#Cc1ccc(-c2cc(O)c(=O)[nH]c2-c2ccc(C#N)cc2)cc1` [5,6-bis(4-Cyanophenyl)-3-hydroxypyridin-2(1H)-one]: the melting point fell in the range of 159 to 162 °C. This compound showed an IC50 in data set [1] (setting [5]) of 0.1 µM.

`O=c1[nH]c(-c2ccc(F)cc2)c(-c2ccc(F)cc2)cc1O` [5,6-bis(4-Fluorophenyl)-3-hydroxypyridin-2(1H)-one]: the melting point lay within 152 to 157 °C.

For the compound `O=c1[nH]c(-c2ccccc2)c(-c2ccccc2)cc1O` [5,6-bis(phenyl)-3-hydroxypyridin-2(1H)-one], the melting point lay within 249 to 255 °C. The half-maximal inhibitory concentration (IC50) in data set [1] (setting [5]) was 0.12 µM and 0.047 µM.

`O=c1[nH]c(-c2ccc(-c3nnn[nH]3)cc2)c(-c2ccc(-c3nnn[nH]3)cc2)cc1O` [5,6-bis[4-(1H-Tetrazol-5-yl)phenyl]-3-hydroxypyridin-2(1H)-one] came in with a melting point of 180 to 182 °C. The compound also displayed a concentration for half-maximal inhibition (IC50) in data set [1] (setting [5]) of 0.29 µM.

On to `N#Cc1ccc(-c2cc(O)c(=O)[nH]c2-c2ccc(F)cc2)cc1` [5-(4-Cyanophenyl)-6-(4-fluorophenyl)-3-hydroxypyridin-2(1H)-one], for which the melting point lay in the range of 255 to 257 °C. Inhibition in data set [1] (setting [5]) was half-maximal at 0.136 µM (IC50).

On to `O=c1[nH]ncc(-c2ccc(F)cc2)c1O` [5-(4-Fluorophenyl)-4-hydroxypyridazin-3(2H)-one], for which the melting point lay within 274 to 276 °C. This compound also registered an IC50 in data set [1] (setting [5]) above 200 µM.

For the compound `N#Cc1ccc(-c2[nH]c(=O)c(O)cc2-c2ccc(F)cc2)cc1` [5-(4-Fluorophenyl)-6-(4-cyanophenyl)-3-hydroxypyridin-2(1H)-one], the melting point fell in the range of 255 to 258 °C. In data set [1] (setting [5]), this compound returned an IC50 of 0.054 µM.

`N#Cc1ccc(-c2c[nH]c(=O)c(O)c2)cc1` [5-(p-Cyanophenyl-3-hydroxypyridin-2(1H)-one] showed an IC50 in data set [1] (setting [5]) of 6.07 µM.

Consider `O=c1[nH]cc(Br)cc1O` [5-Bromo-3-hydroxypyridin-2(1H)-one], for which inhibition in data set [1] (setting [5]) was half-maximal at 5 µM (IC50).

In data set [1] (setting [5]), `O=c1[nH]cc(Cl)cc1O` [5-Chloro-3-hydroxypyridin-2(1H)-one] came in with an IC50 of 5 µM.

As for `O=c1[nH]cc(C2CCCCC2)cc1O` [5-Cyclohexyl-3-hydroxypyridin-2(1H)-one], the IC50 in data set [1] (setting [5]) is 2.1 µM.

With `O=c1[nH]cc(-c2ccccc2)cc1O` [5-Phenyl-3-hydroxypyridin-2(1H)-one], the melting point lay within 175 to 177 °C. In addition, the IC50 in data set [1] (setting [5]) is above 10 µM.

`O=c1[nH]cc(-c2cccc(-c3nnn[nH]3)c2)cc1O` [5-[3-(1H-Tetrazol-5-yl)phenyl]-3-hydroxypyridin-2(1H)-one] came in with an IC50 in data set [1] (setting [5]) of 0.85 µM.

In data set [1] (setting [5]), `O=c1[nH]cc(-c2ccc(-c3nnn[nH]3)cc2)cc1O` [5-[4-(1H-Tetrazol-5-yl)phenyl]-3-hydroxypyridin-2(1H)-one] came in with an IC50 of 0.37 µM.

`O=c1[nH]c(-c2ccc(F)cc2)c(-c2ccc(-c3nnn[nH]3)cc2)cc1O` [5-[4-(1H-Tetrazol-5-yl)phenyl]-6-(4-fluorophenyl)-3-hydroxypyridin-2(1H)-one] yielded a melting point of 185 to 188 °C.

In data set [1] (setting [5]), `O=c1[nH]c(-c2ccc(O)c(O)c2)ccc1O` [6-(3,4-Dihydroxyphenyl)-3-hydroxypyridin-2(1H)-one] gave an IC50 of 0.6 µM.

In data set [1] (setting [5]), `O=c1[nH]c(-c2cccc(F)c2)ccc1O` [6-(3-Fluorophenyl)-3-hydroxypyridin-2(1H)-one] displayed an IC50 of 0.53 µM.

In data set [1] (setting [5]), `COc1cccc(-c2ccc(O)c(=O)[nH]2)c1` [6-(3-Methoxyphenyl)-3-hydroxypyridin-2(1H)one] showed a half-maximal inhibitory concentration (IC50) of 0.54 µM.

As for `O=c1[nH]nc(-c2ccc(-c3nnn[nH]3)cc2)cc1O` [6-(4-(1H-Tetrazol-5-yl)phenyl)-4-hydroxypyridazin-3(2H)-one], in data set [1] (setting [4]), the IC50 was 3 µM.

Turning to `O=c1[nH]c(-c2ccc(-c3nnn[nH]3)cc2)c(-c2ccc(F)cc2)cc1O` [6-(4-(1H-Tetrazol-5-yl)phenyl)-5-(4-fluorophenyl)-3-hydroxypyridin-2(1H)-one], the IC50 in data set [1] (setting [5]) came to 0.018 µM.

The compound `CC(C)(C)c1ccc(-c2ccc(O)c(=O)[nH]2)cc1` [6-(4-(tert-Butyl)phenyl)-3-hydroxypyridin-2(1H)-one] gave an IC50 in data set [1] (setting [5]) of 1.6 µM.

`N#Cc1ccc(-c2ccc(O)c(=O)[nH]2)cc1` [6-(4-Cyanophenyl-3-hydroxypyridin-2(1H)-one]: in data set [1] (setting [5]), the IC50 was 1.2 µM.

Consider `O=c1[nH]c(-c2ccc(F)cc2)ccc1O` [6-(4-Fluoro-phenyl)-3-hydroxypyridin-2(1H)-one], for which the IC50 in data set [1] (setting [4]) was determined as 0.43 µM.

In turn, `O=c1[nH]nc(-c2ccc(F)cc2)cc1O` [6-(4-Fluorophenyl)-4-hydroxypyridazin-3(2H)-one] yielded a melting point of 281 to 283 °C. Besides, in data set [1] (setting [4]), the IC50 worked out at 6 µM.

For `O=c1[nH]cnc(-c2ccc(F)cc2)c1O` [6-(4-Fluorophenyl)-5-hydroxypyrimidin-4(3H)-one], the melting point was in the range of 285 to 287 °C. The same compound displayed an IC50 in data set [1] (setting [5]) of 193 µM.

`O=c1[nH]c(C2=CCCCC2)ccc1O` [6-(Cyclohex-1-en-1-yl)-3-hydroxypyridin-2(1H)-one] returned an IC50 in data set [1] (setting [5]) of 0.75 µM.

As to `O=c1[nH]c(Cc2ccc(-c3ccccc3)cc2)c(-c2ccc(F)cc2)cc1O` [6-([1,1′-Biphenyl]-4-ylmethyl)-5-(4-fluorophenyl)-3-hydroxypyridin-2(1H)-one], in data set [1] (setting [5]), the IC50 turned out to be 0.12 µM.

Consider `O=c1[nH]c(Br)c(-c2ccc(F)cc2)cc1O` [6-Bromo-5-(4-fluorophenyl)-3-hydroxypyridin-2(1H)-one], for which the IC50 in data set [1] (setting [5]) came to 4.2 µM.

With `O=c1[nH]c(C2CCCCC2)ccc1O` [6-Cyclohexyl-3-hydroxypyridin-2(1H)-one], inhibition in data set [1] (setting [5]) was half-maximal at 2.5 µM (IC50).

Take `O=c1[nH]c(-c2ccc(-c3nnn[nH]3)cc2)ccc1O` [6-[4-(1H-tetrazol-5-yl)phenyl]-3-hydroxypyridin-2(1H)-one]: the IC50 in data set [1] (setting [5]) came out at 0.85 µM.

For `O=c1[nH]c(-c2ccc(O)c(O)c2)ccc1O` [drawing 237], the results for the IC50 in data set [2] and in data set [3] were 8.2 ± 2.5 µM and 6 ± 0.8 µM, respectively.

As to `O=c1[nH]c(-c2ccc(-c3nnn[nH]3)cc2)c(-c2ccc(F)cc2)cc1O` [drawing 238], the IC50 is 20.8 ± 5.8 µM in data set [2] and 11.7 ± 1.5 µM in data set [3].

For `O=c1[nH]cc(-c2ccc(F)cc2)cc1O` [drawing 239], the figures for the IC50 in data set [2] and in data set [3] were 11.6 ± 1.6 µM and 15.7 ± 0.9 µM, respectively.

For the compound `O=C(O)c1cccc(-c2c[nH]c(=O)c(O)c2)c1` [drawing 240], the IC50 turned out to be 22.2 ± 2.5 µM in data set [2] and 20.5 ± 1.3 µM in data set [3].

For the compound `O=c1[nH]c(-c2ccc(-c3nnn[nH]3)cc2)ccc1O` [drawing 241], the IC50 amounted to 12.6 ± 3.2 µM in data set [2] and 23.7 ± 2.7 µM in data set [3].

Turning to `O=C(O)c1ccc(-c2c[nH]c(=O)c(O)c2)cc1` [drawing 242], the IC50 was found to be 7.4 ± 1.6 µM in data set [2] and 50.7 ± 2.9 µM in data set [3].
